Earlier results, collected in patent US8664392B2, “Pyrazine derivatives for bioconjugation” (MediBeacon, LLC, priority 2004, dated 2014).

Settings: absorb and emit in the blue to orange regions

**Q.** With `Nc1nc(C(=O)O)c(N)nc1C(=O)O` [3,6-diamino-2,5-pyrazine-dicarboxylic acid] as the compound, how does the Stokes shift read?
**A.** ~100 nm
